Source: publication PMC12140300, “Development of Carbon‐11 Labeled Pyrimidine Derivatives as Novel Positron Emission Tomography (PET) Agents Enabling Brain Sigma‐1 Receptor Imaging” (Advanced Science, 2025)
Like-named read-outs stand apart in the source and are kept apart here. One block for each compound: values may come before it.

Legend:
σ1R [1] = test system: σ1R; design: method as in PMID 25420090; conditions: rodent acute and neuropathic pain models; cited from earlier work
[2] = design: method as in PMID 25420090; conditions: cited from earlier work
σ2R [3] = test system: σ2R; design: method as in PMID 25420090; conditions: selectivity ratio, previous work; cited from earlier work
[4] = test system: non-target receptors or ion channels; design: method as in PMID 25420090; conditions: cited from earlier work
σ1R [5] = molecular target: T1, σ1R (Mus musculus, UniProt O55242); experiment: Mice PET/CT imaging, baseline and self-blocking; type: in vivo, C57BL/6 mice
T1 construct: The PET/CT studies in mice followed previously reported procedures; from tissue; host or cells: mouse brain in vivo (C57BL/6 wild type; 5xFAD transgenic)
Procedure: PET/CT imaging studies of [^11C]CNY‐01 and [^11C]CNY‐02 were performed in male C57BL/6 mice. […] The whole‐brain time‐activity curve (TAC) of each tracer was generated. […] To investigate the binding specificity of [^11C]CNY‐01 and [^11C]CNY‐02, blocking studies were carried out by pre‐administrating mice with corresponding unlabeled ligands. […] This is due to the receptors in peripheral tissues being occupied by CNY‐01, leading to more radiotracer entering the brain and quickly washing out. […] Of note, the TACs show an increase in brain tracer uptake during the blocking studies, which could be attributed to peripheral blocking effects. To address this, we normalized the brain uptake data to the maximum radioactivity observed in the blood (input function). This normalization allowed us to account for peripheral changes in tracer availability.
Figure 3 Mice PET/CT study with [^11C]CNY‐01 and [^11C]CNY‐02. A) Representative baseline and blocking (pre‐treated with 1.0 mg kg^−1 CNY‐01) PET/CT images of [^11C]CNY‐01 focused on the brain (summed 30‒60 min, n = 4). B) Whole brain time‐activity curves of [^11C]CNY‐01 for baseline and blocking mice. C) The normalized baseline and blocking TACs of [^11C]CNY‐01 (normalized the brain uptake curves with the maximum radioactivity in the blood at each time point). D) Representative baseline and blocking (pre‐treated with 1.0 mg kg^−1 CNY‐02) PET/CT images of [^11C]CNY‐02 focused on the brain (summed 30‒60 min, n = 4). E) Whole brain time‐activity curves of [^11C]CNY‐02 for baseline and blocking mice. F) The normalized baseline and blocking TACs of [^11C]CNY‐02 (normalized the brain uptake curves with the maximum radioactivity in the blood at each time point). Data were presented as mean ± standard error of the mean (SEM). Quantification of results was performed using Student's t‐test (***p < 0.0001).
The PET/CT studies in mice followed previously reported procedures with minor modifications.^[ [53], [54] ^] Mice (wild‐type: C57BL/6, male, 6‐month‐old; AD transgenic: 5xFAD, male, 6‐month‐old, n = 4 for each group) were anesthetized with inhalational isoflurane (Patterson Vet Supply, Inc., Greeley, CO, USA) at 2.0% in a carrier of 2 L min^−1 medical oxygen, and maintained at 1.0% isoflurane during the imaging scan. Mice were injected with radiotracer (200 µL) via lateral tail vein catheterization at the start of the dynamic PET scan (Gamma Medica, Northridge, CA, USA). For blocking studies, the blocking agent was administered via the tail vein 5 min before radiotracer injection. Dynamic PET acquisition lasted 60 min and was followed by computed tomography (CT) for anatomic co‐registration. […] Reconstructed images were exported from the scanner in DICOM format and were analyzed using PMOD (PMOD 4.01).

σ1R [6] = test system: σ1R; design: method as in PMID 28572487; conditions: human brain, three-hour imaging period; cited from earlier work
σ1R [7] = conditions: cited from earlier work
σ2R [8] = test system: σ2R; design: method as in PMID 26384292; conditions: selectivity ratio; cited from earlier work
[9] = molecular target: vesicular acetylcholine transporter (VAChT); conditions: off-target affinity; literature value, no reference given; cited from earlier work
[10] = molecular target: emopamil binding protein (EBP); design: method as in PMID 11377189; conditions: off-target affinity; cited from earlier work

T1 sequence (O55242 whole entry): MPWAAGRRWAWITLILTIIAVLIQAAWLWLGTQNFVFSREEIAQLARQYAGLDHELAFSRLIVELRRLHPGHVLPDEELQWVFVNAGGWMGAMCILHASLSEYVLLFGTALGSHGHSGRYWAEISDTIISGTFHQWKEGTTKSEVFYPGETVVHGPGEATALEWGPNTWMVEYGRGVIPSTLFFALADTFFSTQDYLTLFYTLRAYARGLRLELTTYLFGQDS

Compound: Cc1nc(-c2ccc(Cl)cc2)nc(OCCCN2CCCCC2)c1Cl [Lan-0101, 5‐chloro‐2‐(4‐chlorophenyl)‐4‐methyl‐6‐(3‐(piperidin‐1‐yl)propoxy)pyrimidine]
antinociceptive effects (σ1R [1]): dose‐dependent antinociceptive effects
brain penetration [2]: good brain penetration
σ2R/σ1R (σ2R [3]): 1344
binding affinities to non-target receptors or ion channels [4]: no significant binding affinities

maximum standard uptake value (SUV) in the brain (σ1R [5]; male C57BL/6 mice, baseline PET/CT): 0.7
Compound: Cc1nc(-c2ccc(Cl)cc2)nc(OCCCN2CCN([11CH3])CC2)c1Cl [[^11C]CNY-02]
blocking effect, brain uptake normalized to maximum radioactivity in the blood (σ1R [5]; pre-treated with 1.0 mg kg^−1 of the corresponding unlabeled ligand): does not show a significant blocking effect

Compound: O=c1sc2cc(CCC[18F])ccc2n1CCN1CCCCCC1 [[^18F]FTC-146]
brain clearance (σ1R [6]): unexpectedly slow brain clearance
Ki (σ1R [7]): 0.0025 nM

Compound: COc1cc(CCN2CCN(CCCc3ccccc3)CC2)ccc1O[11CH3] [[^11C]SA4503]
σ2R/σ1R (σ2R [8]): 13.3–55.0
Ki [9]: 50 nM
Ki [10]: 1.7 nM
